Here are results for ten molecules from article PMC11726670, “Impact of Linker Composition on VHL PROTAC Cell Permeability” (Journal of Medicinal Chemistry, 2024).

Data set [1] can be described thus: chromatographic Log D at pH 7.5. The class given is physicochemical.
Excerpt: The chromatographic lipophilicities of the nine PROTACs were therefore determined to understand to what extent the cell permeability differences may originate from lipophilicity.
Another data set in a line: in vitro. How it is done:
Stock solutions of the controls and of 1–9 were prepared in DMSO at a concentration of 10 mM, then they were further diluted with PBS (pH 7.4) to a final concentration of 10 μM. Five μL of a lecithin/dodecane mixture and 300 μL of PBS (pH 7.4) solution were pipetted into each acceptor plate well, followed by addition of 300 μL of the solutions of the controls or 1–9 to each well of the donor plate. The acceptor plate was placed into the donor plate followed by incubation at 25 °C, 60 rpm for 16 h.[31] After incubation, aliquots of 50 μL from each well of the acceptor and donor plates are transferred into a 96-well plate and 200 μL of acetonitrile was added to each well. Samples were centrifuged for 20 min and compound concentrations were determined by LC/MS/MS (LC system: Shimadzu; Triple Quad).

The nature of a further data set: physchem. The settings on record: PBS, pH 6.5, aqueous buffer, kinetic from dmso stock.
The next data set addresses VHL (Homo sapiens, UniProt P40337). The data set is described as follows: cell-based VHL binding assay (NanoBRET, live mode). Conditions: classified by in cellulo/in vitro ratio. As for the experimental part:
IC50 values were calculated using a four-parameter fit, with a commercial software package (Genedata Screener, Switzerland).
A general note: In BRET a luciferase serves as donor, and the signal depends on an acceptor being close.

The test system of a further data set is ERK5. Details: method as in PMID 33488971. Conditions: previously reported PROTAC; read-out: IC50 for binding to ERK5; cited from earlier work.
The conditions of data set [2]: PBS at pH 6.5; cited from earlier work.
Data set [3] can be described thus: pKa determined by photometry. The class given is physicochemical. How it is done: Both compounds were therefore treated as being mainly uncharged in the subsequent analyses, and the uncharged form of 7 was used in the NMR studies of its conformational ensemble in chloroform.
The pKa of 7 was determined by photometry as reported previously.[57]

[4] abbreviates: pH 7.5, chromatographic lipophilicity, pH 7.5, read-out: LogD (pH 7.5).
[5] abbreviates: pH 7.5, chromatographic, supplement, read-out: LogD, pH 7.50.

Converted amounts (≈) assume the structure as drawn. Where two headings read alike, the source gives them in different places. Where only a bound is given, the exact number is not on record here.

Sequence of VHL (P40337 whole entry): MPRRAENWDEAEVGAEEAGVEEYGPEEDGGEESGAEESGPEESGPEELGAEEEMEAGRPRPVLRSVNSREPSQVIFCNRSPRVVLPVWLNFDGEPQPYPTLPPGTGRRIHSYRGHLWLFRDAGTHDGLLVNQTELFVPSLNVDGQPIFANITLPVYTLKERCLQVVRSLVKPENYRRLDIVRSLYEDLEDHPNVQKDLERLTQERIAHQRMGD
Excerpt for physchem: Before determining the cell permeability of PROTACs 1–8 we assessed their aqueous solubility.

With `Cc1ncsc1-c1ccc(CNC(=O)[C@@H]2C[C@@H](O)CN2C(=O)[C@@H](NC(=O)CCOCCOCCOc2cnc3c(C4CCN(C(=O)c5ccc(OC(F)(F)F)cc5)CC4)ncnc3c2)C(C)(C)C)cc1` [PROTAC 2, 3-Methyl-N-[3-(2-{2-[(4-{1-[4-(trifluoromethoxy)benzoyl]piperidin-4-yl}pyrido[3,2-d]pyrimidin-7-yl)oxy]ethoxy}ethoxy)propanoyl]-L-valyl-(4R)-4-hydroxy-N-[4-(4-methyl-1,3-thiazol-5-yl)benzyl]-L-prolinamide], in data set [1] (setting [4]), the chromatographic logD came to 2.9. In addition, in data set [1] (setting [5]), the chromatographic logD came out at 2.89. For the same molecule, in the data set “in vitro”, the “higher PAMPA permeability” value is recorded as ~3 orders of magnitude. In addition, in the data set “in vitro” (16 h, 10 μM), the “PAMPA, mean (LogPe, cm/s)” value is given as -5,42 cm/s. For the same molecule, in the data set “in vitro” (16 h, 10 μM, pH 7.4), the “PAMPA Log[Pe (cm/s)]” value is “–5.42 ± 0.035 cm/s”. In “physchem”, the solubility (commonly the concentration that dissolves in the medium under given conditions) came out at 0.64 µM (≈ 0.634 µg/mL) and the kinetic solubility (as a rule, the concentration staying in solution when a stock, usually in DMSO, is diluted into the medium) was under 1 µM.
Turning to `Cc1ncsc1-c1ccc(CNC(=O)[C@@H]2C[C@@H](O)CN2C(=O)[C@@H](NC(=O)CN2CCC(CCCOc3cnc4c(C5CCN(C(=O)c6ccc(OC(F)(F)F)cc6)CC5)ncnc4c3)CC2)C(C)(C)C)cc1` [PROTAC 8, 3-Methyl-N-[(4-{3-[(4-{1-[4-(trifluoromethoxy)benzoyl]piperidin-4-yl}pyrido[3,2-d]pyrimidin-7-yl)oxy]propyl}piperidin-1-yl)acetyl]-L-valyl-(4R)-4-hydroxy-N-[4-(4-methyl-1,3-thiazol-5-yl)benzyl]-L-prolinamide], the values for the chromatographic logD in data set [1] (setting [4]) and in data set [1] (setting [5]) were 3.6 and 3.64, respectively. Further, the “PAMPA, mean (LogPe, cm/s)” value in the data set “in vitro” (16 h, 10 μM) is given as -6,9 cm/s. For the same molecule, the “PAMPA Log[Pe (cm/s)]” value in the data set “in vitro” (16 h, 10 μM, pH 7.4) was “–6.90 ± 0.061 cm/s”.
Consider `CN(Cc1cnc2nc(N)nc(N)c2n1)c1ccc(C(=O)N[C@@H](CCC(=O)O)C(=O)O)cc1` [Methotrexate, reference compound], for which the apparent permeability coefficient (Papp) (as a rule, the rate of passage across a membrane or cell layer, normalised by area and donor concentration) at 16 h, 10 μM in the data set “in vitro” (PAMPA, pH 7.4) was 0.00427 ×10⁻⁶ cm/s.
With `Cc1ncsc1-c1ccc(CNC(=O)[C@@H]2C[C@@H](O)CN2C(=O)[C@@H](NC(=O)COCc2cn(CCOc3cnc4c(C5CCN(C(=O)c6ccc(OC(F)(F)F)cc6)CC5)ncnc4c3)nn2)C(C)(C)C)cc1` [PROTAC 4, 3-Methyl-N-{[(1-{2-[(4-{1-[4-(trifluoromethoxy)benzoyl]piperidin-4-yl}pyrido[3,2-d]pyrimidin-7-yl)oxy]ethyl}-1H-1,2,3-triazol-4-yl)methoxy]acetyl}-L-valyl-(4R)-4-hydroxy-N-[4-(4-methyl-1,3-thiazol-5-yl)benzyl]-L-prolinamide], the chromatographic logD in data set [1] (setting [4]) was 2.7. Also, the “PAMPA, mean (LogPe, cm/s)” value in the data set “in vitro” (16 h, 10 μM) is <-7,94 cm/s. The “PAMPA Log[Pe (cm/s)]” value in the data set “in vitro” (16 h, 10 μM, pH 7.4) is on record as under −7.94 ± 0.20 cm/s. In the data set “physchem”, this molecule had a solubility of 12.1 µM (≈ 12.3 µg/mL) and a solubility (kinetic) of 10 to 20 µM (≈ 10.1 to 20.3 µg/mL).
Turning to `Cc1ncsc1-c1ccc(CNC(=O)[C@@H]2C[C@@H](O)CN2C(=O)[C@@H](NC(=O)CCCCCCCCOc2cnc3c(C4CCN(C(=O)c5ccc(OC(F)(F)F)cc5)CC4)ncnc3c2)C(C)(C)C)cc1` [PROTAC 1, 3-Methyl-N-{9-[(4-{1-[4-(trifluoromethoxy)benzoyl]piperidin-4-yl}pyrido[3,2-d]pyrimidin-7-yl)oxy]nonanoyl}-L-valyl-(4R)-4-hydroxy-N-[4-(4-methyl-1,3-thiazol-5-yl)benzyl]-L-prolinamide], the chromatographic logD in data set [1] (setting [4]) came out at 3.8. The chromatographic logD in data set [1] (setting [5]) was 3.81. In the data set “in vitro” (16 h, 10 μM), the “PAMPA, mean (LogPe, cm/s)” value is given as -8,29 cm/s. Moreover, the “PAMPA Log[Pe (cm/s)]” value in “in vitro” (16 h, 10 μM, pH 7.4) is given as “–8.29 ± 0.023 cm/s”. In the data set “physchem”, the solubility was under 0.1 µM and the solubility (kinetic) is under 1 µM.
Regarding `Cc1ncsc1-c1ccc(CNC(=O)[C@@H]2C[C@@H](O)CN2C(=O)[C@@H](NC(=O)Cc2ccc(OCCOc3cnc4c(C5CCN(C(=O)c6ccc(OC(F)(F)F)cc6)CC5)ncnc4c3)cn2)C(C)(C)C)cc1` [PROTAC 6, 3-Methyl-N-[(5-{2-[(4-{1-[4-(trifluoromethoxy)benzoyl]piperidin-4-yl}pyrido[3,2-d]pyrimidin-7-yl)oxy]ethoxy}pyridin-2-yl)acetyl]-L-valyl-(4R)-4-hydroxy-N-[4-(4-methyl-1,3-thiazol-5-yl)benzyl]-L-prolinamide], the chromatographic logD in data set [1] (setting [4]) was 3. Moreover, in data set [1] (setting [5]), the chromatographic logD turned out to be 2.97. The “PAMPA, mean (LogPe, cm/s)” value in “in vitro” (16 h, 10 μM) is recorded as -7,28 cm/s. Further, the “PAMPA Log[Pe (cm/s)]” value in the data set “in vitro” (16 h, 10 μM, pH 7.4) is “–7.28 ± 0.035 cm/s”. For the same molecule, in the data set “physchem”, the solubility amounted to 0.52 µM (≈ 0.525 µg/mL) and the kinetic solubility is under 1 µM.
For the molecule `Cc1ncsc1-c1ccc(CNC(=O)[C@@H]2C[C@@H](O)CN2C(=O)[C@@H](NC(=O)COCCOCCNC(=O)COc2cnc3c(C4CCN(C(=O)c5ccc(OC(F)(F)F)cc5)CC4)ncnc3c2)C(C)(C)C)cc1` [PROTAC 9], the chromatographic logD in data set [1] (setting [4]) was 2.7; in data set [1] (setting [5]), 2.68. In addition, on VHL, the “cell permeability class (in words)” value was “high”. In the data set “in vitro” (16 h, 10 μM), the “PAMPA, mean (LogPe, cm/s)” value is on record as -6,3 cm/s. Besides, in the data set “in vitro” (16 h, 10 μM, pH 7.4), the “PAMPA Log[Pe (cm/s)]” value is “–6.30 ± 0.074 cm/s”. Moreover, the IC50 (commonly the point on the concentration scale where inhibition reaches its midpoint) with ERK5 was 1230 nM. The kinetic solubility in data set [2] is 6.8 µM (≈ 7.03 µg/mL).
Regarding `Cc1ncsc1-c1ccc(CNC(=O)[C@@H]2C[C@@H](O)CN2C(=O)[C@@H](NC(=O)CN(C)CCCCCCOc2cnc3c(C4CCN(C(=O)c5ccc(OC(F)(F)F)cc5)CC4)ncnc3c2)C(C)(C)C)cc1` [PROTAC 7, N-Methyl-N-{6-[(4-{1-[4-(trifluoromethoxy)benzoyl]piperidin-4-yl}pyrido[3,2-d]pyrimidin-7-yl)oxy]hexyl}glycyl-3-methyl-L-valyl-(4R)-4-hydroxy-N-[4-(4-methyl-1,3-thiazol-5-yl)benzyl]-L-prolinamide], the chromatographic logD in data set [1] (setting [4]) stood at 3.7. Besides, the chromatographic logD in data set [1] (setting [5]) came out at 3.74. In “in vitro” (16 h, 10 μM), the “PAMPA, mean (LogPe, cm/s)” value is -6,67 cm/s and the “improvement in PAMPA permeability” value came to 40 fold. Further, the “PAMPA Log[Pe (cm/s)]” value in “in vitro” (16 h, 10 μM, pH 7.4) was “–6.67 ± 0.017 cm/s”. In data set [3] (at pH 7.4, from determined pKa), this molecule showed an uncharged fraction of 76%. This molecule returned a partially charged fraction in data set [3] (at physiological pH) of under 25%. Also, the pKa (as a rule, the pH at which an ionisable group is half protonated) in data set [3] (tertiary amine of linker, photometry) was 6.9.
As for `Cc1ncsc1-c1ccc(CNC(=O)[C@@H]2C[C@@H](O)CN2C(=O)[C@@H](NC(=O)CCOCCNC(=O)COc2cnc3c(C4CCN(C(=O)c5ccc(OC(F)(F)F)cc5)CC4)ncnc3c2)C(C)(C)C)cc1` [PROTAC 3, 3-Methyl-N-[3-(2-{2-[(4-{1-[4-(trifluoromethoxy)benzoyl]piperidin-4-yl}pyrido[3,2-d]pyrimidin-7-yl)oxy]acetamido}ethoxy)propanoyl]-L-valyl-(4R)-4-hydroxy-N-[4-(4-methyl-1,3-thiazol-5-yl)benzyl]-L-prolinamide], the chromatographic logD in data set [1] (setting [4]) came out at 2.7; in data set [1] (setting [5]), 2.66. Also, the “PAMPA, mean (LogPe, cm/s)” value in the data set “in vitro” (16 h, 10 μM) is reported as -6,21 cm/s. Further, the “PAMPA Log[Pe (cm/s)]” value in “in vitro” (16 h, 10 μM, pH 7.4) is “–6.21 ± 0.046 cm/s”. This molecule also yielded a solubility in the data set “physchem” of 17 µM (≈ 17.1 µg/mL). For the same molecule, in “physchem”, the solubility (kinetic) is 10 to 20 µM (≈ 10 to 20.1 µg/mL).
Regarding `Cc1ncsc1-c1ccc(CNC(=O)[C@@H]2C[C@@H](O)CN2C(=O)[C@@H](NC(=O)Cc2ccc(OCCOc3cnc4c(C5CCN(C(=O)c6ccc(OC(F)(F)F)cc6)CC5)ncnc4c3)cc2)C(C)(C)C)cc1` [PROTAC 5, 3-Methyl-N-[(4-{2-[(4-{1-[4-(trifluoromethoxy)benzoyl]piperidin-4-yl}pyrido[3,2-d]pyrimidin-7-yl)oxy]ethoxy}phenyl)acetyl]-L-valyl-(4R)-4-hydroxy-N-[4-(4-methyl-1,3-thiazol-5-yl)benzyl]-L-prolinamide], the chromatographic logD in data set [1] (setting [4]) came out at 3.2. For the same molecule, in data set [1] (setting [5]), the chromatographic logD came to 3.25. Moreover, the “PAMPA, mean (LogPe, cm/s)” value in “in vitro” (16 h, 10 μM) is recorded as <-7,56 cm/s. Besides, the “PAMPA Log[Pe (cm/s)]” value in “in vitro” (16 h, 10 μM, pH 7.4) is listed as under −7.56 ± 0.30 cm/s. Besides, in “physchem”, the solubility amounted to 0.36 µM (≈ 0.363 µg/mL) and the kinetic solubility is under 1 µM.
